Source: patent publication US9682995B2, “Amino-substituted isothiazoles” (BAYER PHARMA AKTIENGESELLSCHAFT, priority 2013, dated 2017)

Experiments:
[1] = tested on: spindle assembly checkpoint; experiment: SAC-Formation - Paclitaxel-Induced Assay; type: cell-based; settings: Homo sapiens; HeLa cells, paclitaxel 0.05 μM, 24 h, phosphorylated histone H3 on serine 10
From the text: The spindle assembly checkpoint assures the proper segregation of chromosomes during mitosis. Upon entry into mitosis, chromosomes begin to condensate which is accompanied by the phosphorylation of histone H3 on serine 10. Dephosphorylation of histone H3 on serine 10 begins in anaphase and ends at early telophase. Accordingly, phosphorylation of histone H3 on serine 10 can be utilized as a marker of cells in mitosis. Nocodazole is a microtubule destabilizing substance. Paclitaxel is a microtubule stabilizing compound. Thus, nocodazole as well as paclitaxel interfere with microtubule dynamics and mobilize the spindle assembly checkpoint. […] The mitotic breakthrough can be detected by the decrease of cells with phosphorylation of histone H3 on serine 10. This decline is used as a marker to determine the capability of compounds of the present invention to induce a mitotic breakthrough. The typical morphological alteration of nuclei with a prematurely completed mitosis after SAC-inhibition can be monitored via image analysis routines supporting those findings.
The nocodazole and paclitaxel variations were used to focus on compounds that are capable of inhibiting a SAC induced by both microtubule destabilization as well as microtubule stabilization. When SAC inducing agents and compounds are given simultaneously, inhibitors that effectively block the SAC during formation or abrogation are identified. When cells are incubated with a SAC inducing agent and the SAC interfering compound is given after a defined time, inhibitors are identified that effectively block SAC abrogation.
Cultivated cells of the human cervical tumor cell line HeLa (ATCC CCL-2) were plated at a density of 1000 cells/well in a 1536-well microtiter plate in 2 μl PAA Ham's F12 Medium supplemented with 1% (v/v) glutamine, 1% (v/v) penicillin, 1% (v/v) streptomycin and 10% (v/v) fetal calf serum. After incubation overnight at 37° C., 10 μl/well paclitaxel at a final concentration of 0.05 μM were added to cells. Test compounds solubilized in dimethyl sulfoxide (DMSO) were added at various concentrations (0 μM, as well as in the range of 0.005 μM-20 μM; the final concentration of the solvent DMSO was 0.5% (v/v)). Cells were incubated for 24 h at 37° C. in the presence of test compounds in combination with paclitaxel. Thereafter, cells were fixed in 4% (v/v) paraformaldehyde in phosphate buffered saline (PBS) at 4° C. overnight then permeabilized in 0.1% (v/v) Triton X™ 100 in PBS at room temperature for 20 min and blocked in 0.5% (v/v) bovine serum albumin (BSA) in PBS at room temperature for 15 min. After washing with PBS, 5 μl/well antibody solution (anti-phospho-histone H3 clone 3H10, FITC; Millipore, Cat #16-222; 1:1000 dilution) was added to cells, which were incubated for 2 h at room temperature. Afterwards, cells were washed with PBS and 5 μl/well solution of HOECHST 33342 dye (5 μg/ml) was added to cells and cells were incubated 15 min at room temperature in the dark. Cells were washed twice with PBS then covered with PBS and stored at 4° C. until analysis. Images were acquired with a PERKIN ELMER OPERA™ High-Content Analysis reader. Images were analyzed with image analysis software MetaXpress™ from Molecular devices utilizing the Mitotic Index application module. In this assay both labels HOECHST 33342 and phosphorylated Histone H3 on serine 10 were measured. HOECHST 33342 labels the DNA and is used to count the cell number. The staining of phosphorylated Histone H3 on serine 10 determines the number of mitotic cells. […] Otherwise cells were arrested at G2/M phase of the cell cycle progression. The raw assay data were further analyzed by four-parametric hill equation using Genedata's Assay Analyzer and Condoseo software.

human Bub1 = human Bub1 (Homo sapiens (Human), UniProt O43683); experiment: Bub1 kinase assay (TR-FRET); type: biochemical; settings: 10 μM ATP; read-out: Bub1 avg (IC50 [mol/l])
From the text: Bub1-inhibitory activity of compounds of the present invention was quantified employing the Bub1 TR-FRET assay as described in the following paragraphs.
N-terminally His6-tagged recombinant catalytic domain of human Bub1 (amino acids 704-1085), expressed in insect cells (Hi5) and purified by Ni-NTA affinity chromatography and subsequent size exclusion chromatography, was used as enzyme. As substrate for the kinase reaction the biotinylated peptide biotin-Ahx-VLLPKKSFAEPG (C-terminus in amid form) was used which can be purchased e.g. form the company Biosyntan (Berlin, Germany).
For the assay 50 nl of a 100 fold concentrated solution of the test compound in DMSO was pipetted into a black low volume 384 well microtiter plate (Greiner Bio-One, Frickenhausen, Germany), 2 μl of a solution of Bub1 in aqueous assay buffer [50 mM Tris/HCl pH 7.5, 10 mM magnesium chloride (MgCl2), 200 mM potassium chloride (KCl), 1.0 mM dithiothreitol (DTT), 0.1 mM sodium ortho-vanadate, 1% (v/v) glycerol, 0.01% (w/v) bovine serum albumine (BSA), 0.005% (v/v) Trition X-100 (Sigma), 1× Complete EDTA-free protease inhibitor mixture (Roche)] were added and the mixture was incubated for 15 min at 22° C. to allow pre-binding of the test compounds to the enzyme before the start of the kinase reaction. Then the kinase reaction was started by the addition of 3 μl of a solution of adenosine-tri-phosphate (ATP, 16.7 μM=>final conc. in the 5 μl assay volume is 10 μM) and substrate (1.67 μM=>final conc. in the 5 μl assay volume is 1 μM) in assay buffer and the resulting mixture was incubated for a reaction time of 60 min at 22° C. The concentration of Bub1 was adjusted depending of the activity of the enzyme lot and was chosen appropriate to have the assay in the linear range, typical concentrations were in the range of 200 ng/ml. The reaction was stopped by the addition of 5 μl of a solution of TR-FRET detection reagents (0.2 μM streptavidine-XL665 [Cisbio Bioassays, Codolet, France] and 1 nM anti-phosho-Serine antibody [Merck Millipore, cat. #35-001] and 0.4 nM LANCE EU-W1024 labeled anti-mouse IgG antibody [Perkin-Elmer, product no. AD0077, as an alternative a Terbium-cryptate-labeled anti-mouse IgG antibody from Cisbio Bioassays can be used]) in an aqueous EDTA-solution (50 mM EDTA, 0.2% (w/v) bovine serum albumin in 100 mM HEPES pH 7.5).
The resulting mixture was incubated 1 h at 22° C. to allow the formation of complex between the phosphorylated biotinylated peptide and the detection reagents. Subsequently the amount of phosphorylated substrate was evaluated by measurement of the resonance energy transfer from the Eu-chelate to the streptavidine-XL. Therefore, the fluorescence emissions at 620 nm and 665 nm after excitation at 350 nm was measured in a TR-FRET reader, e.g. a Rubystar or Pherastar (both from BMG Labtechnologies, Offenburg, Germany) or a Viewlux (Perkin-Elmer). The ratio of the emissions at 665 nm and at […] was taken as the measure for the amount of phosphorylated substrate. The data were normalised (enzyme reaction without inhibitor=0% inhibition, all other assay components but no enzyme=100% inhibition).

Chain of human Bub1 (O43683 704-1085): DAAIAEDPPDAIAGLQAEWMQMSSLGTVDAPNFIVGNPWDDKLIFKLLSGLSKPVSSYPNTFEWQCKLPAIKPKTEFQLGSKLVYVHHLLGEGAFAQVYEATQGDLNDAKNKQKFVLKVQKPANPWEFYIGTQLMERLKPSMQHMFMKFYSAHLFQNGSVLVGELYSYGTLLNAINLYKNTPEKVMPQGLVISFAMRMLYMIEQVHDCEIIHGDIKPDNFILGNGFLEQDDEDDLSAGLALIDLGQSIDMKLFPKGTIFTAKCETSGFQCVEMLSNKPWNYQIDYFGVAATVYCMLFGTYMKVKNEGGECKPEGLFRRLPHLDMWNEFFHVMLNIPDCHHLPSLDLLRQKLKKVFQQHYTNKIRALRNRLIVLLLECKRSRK

SMILES	IC50 [1] [nM]	IC50 (human Bub1) [nM]
COc1ccc(NC(=O)c2c(C)nsc2Nc2ccc(C#N)cn2)cn1 [Example 39, 5-[(5-Cyanopyridin-2-yl)amino]-N-(6-methoxypyridin-3-yl)-3-methyl-1,2-thiazole-4-carboxamide]	1300	> 20000
Cc1nsc(Nc2cnc3ccccc3n2)c1C(=O)Nc1ccc(Oc2ccccc2)nc1 [Example 112, 3-Methyl-N-(6-phenoxypyridin-3-yl)-5-(quinoxalin-2-ylamino)-1,2-thiazole-4-carboxamide]	57	> 20000
CCc1ccccc1NC(=O)c1c(C)nsc1Nc1cc(-n2ccnc2)ncn1 [Example 9, N-(2-Ethylphenyl)-5-{[6-(1H-imidazol-1-yl)pyrimidin-4-yl]amino}-3-methyl-1,2-thiazole-4-carboxamide]	3000	> 20000
CCc1ccccc1NC(=O)c1c(C)nsc1Nc1cc(NC)ncn1 [Example 15, N-(2-Ethylphenyl)-3-methyl-5-{[6-(methylamino)pyrimidin-4-yl]amino}-1,2-thiazole-4-carboxamide]	> 20000	> 20000
CCOC(=O)c1sc(Nc2snc(C)c2C(=O)Nc2ccccc2CC)nc1C [Example 26, Ethyl 2-({4-[(2-ethylphenyl)carbamoyl]-3-methyl-1,2-thiazol-5-yl}amino)-4-methyl-1,3-thiazole-5-carboxylate]	250	> 20000
COC(=O)c1cnc(Nc2snc(C)c2C(=O)Nc2ccc(OC)nc2)cn1 [Example 32, Methyl 5-({4-[(6-methoxypyridin-3-yl)carbamoyl]-3-methyl-1,2-thiazol-5-yl}amino)-pyrazine-2-carboxylate]	1200	> 20000
Cc1nsc(Nc2cc(C#N)ccn2)c1C(=O)Nc1ccc(Cl)c(F)c1 [Example 54, N-(4-Chloro-3-fluorophenyl)-5-[(4-cyanopyridin-2-yl)amino]-3-methyl-1,2-thiazole-4-carboxamide]	30	> 20000
Cc1nsc(Nc2ncc(C(=O)N(C)C)s2)c1C(=O)Nc1ccc(F)c(F)c1 [Example 49, N-(3,4-Difluorophenyl)-5-{[5-(dimethylcarbamoyl)-1,3-thiazol-2-yl]amino}-3-methyl-1,2-thiazole-4-carboxamide]	960	> 20000
Cc1nsc(Nc2cnc(C(=O)N(C)C)cn2)c1C(=O)Nc1ccc(F)c(F)c1 [Example 109, 5-({4-[(3,4-Difluorophenyl)carbamoyl]-3-methyl-1,2-thiazol-5-yl}amino)-N,N-dimethylpyrazine-2-carboxamide]	1900	> 20000
CCOC(=O)c1coc(Nc2snc(C)c2C(=O)Nc2ccc(F)c(F)c2)n1 [Example 98, Ethyl 2-({4-[(3,4-difluoro-phenyl)carbamoyl]-3-methyl-1,2-thiazol-5-yl}amino)-1,3-oxazole-4-carboxylate]	7900	> 20000
COc1ccc(Oc2ccc(NC(=O)c3c(C)nsc3Nc3cc(C#N)ccn3)cn2)cc1 [Example 117, 5-[(4-Cyanopyridin-2-yl)amino]-N-[6-(4-methoxyphenoxy)pyridin-3-yl]-3-methyl-1,2-thiazole-4-carboxamide]	2000	> 20000
Cc1nsc(Nc2cc(C#N)ccn2)c1C(=O)Nc1ccc(Oc2ccccc2)nc1 [Example 111, 5-[(4-Cyanopyridin-2-yl)amino]-3-methyl-N-(6-phenoxypyridin-3-yl)-1,2-thiazole-4-carboxamide]	1800	> 20000
CCc1ccccc1NC(=O)c1c(C)nsc1Nc1cnccn1 [Example 1, N-(2-Ethylphenyl)-3-methyl-5-(pyrazin-2-ylamino)-1,2-thiazole-4-carboxamide]	4900	> 20000
CCc1ccccc1NC(=O)c1c(C)nsc1Nc1ncnc2ccccc12 [Example 10, N-(2-Ethylphenyl)-3-methyl-5-(quinazolin-4-ylamino)-1,2-thiazole-4-carboxamide]	11000	> 20000
Cc1nsc(Nc2cnc3ccccc3n2)c1C(=O)Nc1ccc(Cl)c(F)c1 [Example 40, N-(4-Chloro-3-fluorophenyl)-3-methyl-5-(quinoxalin-2-ylamino)-1,2-thiazole-4-carboxamide]	120	> 20000
Cc1nsc(Nc2cnc3cc(F)ccc3n2)c1C(=O)Nc1ccc(F)c(F)c1 [Example 46, N-(3,4-Difluorophenyl)-5-[(6-fluoroquinoxalin-2-yl)amino]-3-methyl-1,2-thiazole-4-carboxamide]	34	> 20000
Cc1nsc(Nc2ccc(C#N)cn2)c1C(=O)Nc1ccc(F)c(F)c1 [Example 28, 5-[(5-Cyanopyridin-2-yl)amino]-N-(3,4-difluorophenyl)-3-methyl-1,2-thiazole-4-carboxamide]	72	> 20000
Cc1nsc(Nc2cc(C#N)ccn2)c1C(=O)Nc1ccc(Oc2ccc(F)cc2F)nc1 [Example 114, 5-[(4-Cyanopyridin-2-yl)amino]-N-[6-(2,4-difluorophenoxy)pyridin-3-yl]-3-methyl-1,2-thiazole-4-carboxamide]	120	
COc1ccc(NC(=O)c2c(C)nsc2Nc2ncccc2C#N)cn1 [Example 36, 5-[(3-Cyanopyridin-2-yl)amino]-N-(6-methoxypyridin-3-yl)-3-methyl-1,2-thiazole-4-carboxamide]	3700	
